Measured values published in patent US20250221979A1, “NOVEL HETEROCYCLIC COMPOUND” (SHOUYAO HOLDINGS (BEIJING) CO., LTD., priority 2022, published 2025).
Counter-ions that a name gives are not always drawn.

Molecular target: human MAT2A enzyme (Homo sapiens (Human), UniProt P31153)
Experiment: In vitro enzymatic inhibition activity assay on MAT2A (PiColorLock phosphate detection)
Format: biochemical
Conditions: purified human MAT2A 10 nM, ATP 50 μM, L-methionine 100 μM, 6 h at 23° C.; read-out: MAT2A inhibitory activity IC50
Summary of the method: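 Purified human MAT2A (10 nM) turned L-methionine (100 μM) and ATP (50 μM) into SAM in Tris-HCl pH 7.5 buffer with MgCl2, KCl and DTT for 6 h at 23 °C. Released phosphate was read colorimetrically at 630 nm. IC50 was fitted from an 8-point, 10-fold dilution series.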

Sequence of human MAT2A enzyme (P31153 whole entry): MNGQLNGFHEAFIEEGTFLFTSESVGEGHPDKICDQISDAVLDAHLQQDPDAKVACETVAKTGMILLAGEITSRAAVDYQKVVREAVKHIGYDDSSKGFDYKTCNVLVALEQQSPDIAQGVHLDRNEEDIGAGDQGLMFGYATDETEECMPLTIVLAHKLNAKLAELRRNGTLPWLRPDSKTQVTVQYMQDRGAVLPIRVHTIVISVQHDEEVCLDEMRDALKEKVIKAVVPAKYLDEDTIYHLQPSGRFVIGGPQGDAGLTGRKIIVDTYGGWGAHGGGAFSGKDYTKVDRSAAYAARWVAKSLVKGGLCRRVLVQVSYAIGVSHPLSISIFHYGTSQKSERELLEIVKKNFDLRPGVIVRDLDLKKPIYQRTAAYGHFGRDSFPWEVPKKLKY

Row | IC50 | SMILES
1 | 4.57 nM | Nc1c(C(=O)OC2CC2)c(=O)n(-c2ccccc2)c2cc(I)ccc12 [Example 50, cyclopropyl 4-amino-7-iodo-2-oxo-1-phenyl-1,2-dihydroquinolin-3-carboxylate]
2 | 2.34 nM | COC(=O)c1c(N)c2ccc(C(F)(F)F)nc2n(-c2cccc3c(Cl)nccc23)c1=O [Example 318, methyl 4-amino-1-(1-chloroisoquinolin-5-yl)-2-oxo-7-(trifluoromethyl)-1,2-dihydro-1,8-naphthyridine-3-carboxylate]
3 | 0.54 nM | COC(=O)c1c(N)c2ccc(C(F)F)cc2n(-c2ccc([C@@H](C)O)cc2)c1=O [Example 357, methyl (R)-4-amino-7-(difluoromethyl)-1-(4-(1-hydroxyethyl)phenyl)-2-oxo-1,2-dihydroquinoline-3-carboxylate]
4 | 2.5 nM | COC(=O)c1c(N)c2ccc(C(F)(F)F)cc2n(-c2ccc(C)nc2)c1=O [Example 215, methyl 4-amino-1-(6-methylpyridin-3-yl)-2-oxo-7-(trifluoromethyl)-1,2-dihydroquinoline-3-carboxylate]
5 | 3.79 nM | COC(=O)c1c(N)c2ccc(C(F)(F)F)cc2n(Cc2ccccc2)c1=O [Example 29, methyl 4-amino-1-benzyl-2-oxo-7-(trifluoromethyl)-1,2-dihydroquinoline-3-carboxylate]
6 | 2.01 nM | COC(=O)c1c(N)c2ccc(C3CC3)cc2n(-c2ccc(Cl)cc2)c1=O [Example 134, methyl 4-amino-1-(4-chlorophenyl)-7-cyclopropyl-2-oxo-1,2-dihydro quinoline-3-carboxylate]
7 | 2.89 nM | CNc1ccc(-n2c(=O)c(C(=O)OC)c(N)c3ccc(C(F)(F)F)cc32)cc1 [Example 115, methyl 4-amino-1-(4-(methylamino)phenyl)-2-oxo-7-(trifluoromethyl)-1,2-dihydroquinoline-3-carboxylate hydrochloride]
8 | 1.69 nM | COC(=O)c1c(N)c2ccc(Br)nc2n(-c2ccc(Cl)nc2C)c1=O [Example 248, methyl 4-amino-7-bromo-1-(6-chloro-2-methylpyridin-3-yl)-2-oxo-1,2-dihydro-1,8-naphthyridine-3-carboxylate]
9 | 0.46 nM | COC(=O)c1c(N)c2ccc(OC(F)F)cc2n(-c2ccc([C@@H](C)O)cc2)c1=O [Example 354, methyl (R)-4-amino-7-(difluoromethoxy)-1-(4-(1-hydroxyethyl)phenyl)-2-oxo-1,2-dihydroquinoline-3-carboxylate]
10 | 3.62 nM | COC(=O)c1c(N)c2ccc(I)cc2n(Cc2ccccc2)c1=O [Example 28, methyl 4-amino-1-benzyl-7-iodo-2-oxo-1,2-dihydroquinoline-3-carboxylate]
11 | 1.04 nM | COC(=O)c1c(N)c2ccc(C(F)(F)F)cc2n(-c2ccc3ccccc3c2)c1=O [Example 26, methyl 4-amino-1-(naphthalen-2-yl)-2-oxo-7-(trifluoromethyl)-1,2-dihydro quinoline-3-carboxylate]
12 | 1.08 nM | COC(=O)c1c(N)c2ccc(Br)cc2n(-c2ccc(N)cc2F)c1=O [Example 259, methyl 4-amino-1-(4-amino-2-fluorophenyl)-7-bromo-2-oxo-1,2-dihydro quinoline-3-carboxylate]
13 | 2.07 nM | COC(=O)c1c(N)c2ccc(Br)cc2n(-c2ccc3nccnc3c2)c1=O [Example 220, methyl 4-amino-7-bromo-2-oxo-1-(quinoxalin-6-yl)-1,2-dihydroquinoline-3-carboxylate]
14 | 3.34 nM | COC(=O)c1c(N)c2ccc(C(F)(F)F)cc2n(-c2ccc3c(c2)C(O)CC3)c1=O (stereo not drawn) [Example 137, methyl 4-amino-1-(3-hydroxy-2,3-dihydro-1H-inden-5-yl)-2-oxo-7-(trifluoromethyl)-1,2-dihydroquinoline-3-carboxylate]
15 | 6.76 nM | COC(=O)c1c(N)c2ccc(C3CC3)cc2n(-c2ccccc2)c1=O [Example 66, methyl 4-amino-7-cyclopropyl-2-oxo-1-phenyl-1,2-dihydroquinoline-3-carboxylate]
16 | 8.94 nM | C=Cc1ccc2c(N)c(C(=O)OC)c(=O)n(-c3cccc4cnccc34)c2c1 [Example 185, methyl 4-amino-1-(isoquinolin-5-yl)-2-oxo-7-vinyl-1,2-dihydroquinoline-3-carboxylate]
17 | 1.72 nM | COC(=O)c1c(N)c2ccc(Br)nc2n(-c2cnc(N)cc2C)c1=O [Example 280, methyl 4-amino-1-(6-amino-4-methylpyridin-3-yl)-7-bromo-2-oxo-1,2-dihydro-1,8-naphthyridine-3-carboxylate]
18 | 7.58 nM | COC(=O)c1c(N)c2ccc(C(F)(F)F)cc2n(-c2ccc(C=O)cc2)c1=O [Example 164, methyl 4-amino-1-(4-formylphenyl)-2-oxo-7-(trifluoromethyl)-1,2-dihydroquinoline-3-carboxylate]

Row | IC50 | SMILES
19 | 1.88 nM | COC(=O)c1c(N)c2ccc(NCC(F)(F)F)nc2n(-c2ccc(C)nc2)c1=O [Example 382, methyl 4-amino-1-(6-methylpyridin-3-yl)-2-oxo-7-((2,2,2-trifluoroethyl)amino)-1,2-dihydro-1,8-naphthyridine-3-carboxylate]
20 | 0.92 nM | CCOC(=O)c1c(N)c2ccc(C(F)(F)F)cc2n(-c2ccc([C@@H](C)O)cc2)c1=O [Example 330, ethyl 4-amino-1-(4-(1-(R)-hydroxyethyl)phenyl)-2-oxo-7-(trifluoromethyl)-1,2-dihydroquinoline-3-carboxylate]
21 | 0.79 nM | COC(=O)c1c(N)c2ccc(Br)nc2n(-c2cccc3c(C)nccc23)c1=O [Example 290, methyl 4-amino-1-(1-methylisoquinolin-5-yl)-7-bromo-2-oxo-1,2-dihydro-1,8-naphthyridine-3-carboxylate]
22 | 0.81 nM | COC(=O)c1c(N)c2ccc(C(F)(F)F)cc2n(-c2ccc3occc3c2)c1=O [Example 196, methyl 4-amino-1-(6-benzofuran-5-yl)-2-oxo-7-(trifluoromethyl)-1,2-dihydro quinoline-3-carboxylate]
23 | 1.15 nM | [2H]C([2H])([2H])OC(=O)c1c(N)c2ccc(OC(F)F)cc2n(-c2ccc(N)cc2C)c1=O [Example 429, methyl-d3 4-amino-1-(2-methyl-4-aminophenyl)-7-(difluoromethoxy)-2-oxo-1,2-dihydroquinolin-3-carboxylate]
24 | 3.11 nM | COC(=O)c1c(N)c2ccc(I)cc2n(-c2cnc(Cl)cc2C)c1=O [Example 225, methyl 4-amino-1-(6-chloro-4-methylpyridin-3-yl)-7-iodo-2-oxo-1,2-dihydroquinoline-3-carboxylate]
25 | 3.39 nM | COC(=O)c1c(N)c2ccc(Br)cc2n(-c2ccc3ncoc3c2)c1=O [Example 268, methyl 4-amino-1-(benzo[d]oxazol-6-yl)-7-bromo-2-oxo-1,2-dihydroquinoline-3-carboxylate]
26 | 5.99 nM | COC(=O)c1c(N)c2ccc(Br)cc2n(-c2ccc([N+](=O)[O-])cc2)c1=O [Example 130, methyl 4-amino-2-oxo-7-bromo-1-(4-nitrophenyl)-1,2-dihydroquinoline-3-carboxylate]
27 | 1.68 nM | COC(=O)c1c(N)c2ccc(C(F)(F)F)cc2n(-c2ccc(Br)cc2)c1=O [Example 81, methyl 4-amino-1-(4-bromophenyl)-2-oxo-7-(trifluoromethyl)-1,2-dihydro quinoline-3-carboxylate]
28 | 9.95 nM | COC(=O)c1c(N)c2ccc(C(F)(F)F)cc2n(-c2ccc(OC)cc2F)c1=O [Example 97, methyl 4-amino-1-(2-fluoro-4-methoxyphenyl)-2-oxo-7-(trifluoromethyl)-1,2-dihydroquinoline-3-carboxylate]
29 | 2 nM | COC(=O)c1c(N)c2ccc(Br)nc2n(-c2cnc(Cl)cc2C)c1=O [Example 296, methyl 4-amino-7-bromo-1-(6-chloro-4-methylpyridin-3-yl)-2-oxo-1,2-dihydro-1,8-naphthyridine-3-carboxylate]
30 | 7.39 nM | COC(=O)c1c(N)c2ccc(C(F)(F)F)cc2n(-c2ccccc2Br)c1=O [Example 93, methyl 4-amino-1-(2-bromophenyl)-2-oxo-7-(trifluoromethyl)-1,2-dihydroquinoline-3-carboxylate]
31 | 1.52 nM | [2H]C([2H])([2H])OC(=O)c1c(N)c2ccc(OC(F)(F)F)cc2n(-c2ccc([C@@H](C)O)cc2)c1=O [Example 393, methyl-d3 4-amino-1-(4-((1R)-1-hydroxyethyl)phenyl)-2-oxo-7-(trifluoromethoxy)-1,2-dihydroquinoline-3-carboxylate]
32 | 0.74 nM | [2H]C([2H])([2H])OC(=O)c1c(N)c2ccc(C(F)(F)F)nc2n(-c2ccc(C(C)O)cc2)c1=O (stereo not drawn) [Example 310, methyl-d3 4-amino-1-(4-(1-hydroxyethyl)phenyl)-2-oxo-7-(trifluoromethyl)-1,2-dihydro-1,8-naphthyridine-3-carboxylate]
33 | 1.08 nM | COC(=O)c1c(N)c2ccc(I)cc2n(-c2ccc(C)nc2C)c1=O [Example 294, methyl 4-amino-1-(2,6-dimethylpyridin-3-yl)-2-oxo-7-iodo-1,2-dihydroquinoline-3-carboxylate]
34 | 2.59 nM | COC(=O)c1c(N)c2ccc(C3CC3)cc2n(-c2ccc(C(C)O)cc2)c1=O (stereo not drawn) [Example 328, methyl 4-amino-1-(4-(1-hydroxyethyl)phenyl)-2-oxo-7-cyclopropyl-1,2-dihydroquinoline-3-carboxylate]
35 | 0.6 nM | [2H]C([2H])([2H])OC(=O)c1c(N)c2ccc(Br)cc2n(-c2ccc(C(C)O)cc2)c1=O (stereo not drawn) [Example 311, methyl-d3 4-amino-7-bromo-1-(4-(1-hydroxyethyl)phenyl)-2-oxo-1,2-dihydroquinoline-3-carboxylate]
36 | 2.67 nM | COC(=O)c1c(N)c2ccc(C(F)(F)F)cc2n(-c2ccc(I)cc2)c1=O [Example 125, methyl 4-amino-1-(4-iodophenyl)-2-oxo-7-(trifluoromethyl)-1,2-dihydroquinoline-3-carboxylate]
